# In patent US20180369143A1, “METAL COMPLEXED THERAPEUTIC AGENTS AND LIPID-BASED NANOPARTICULATE FORMULATIONS THEREOF” (BRITISH COLUMBIA CANCER AGENCY BRANCH, priority 2015, published 2018):
# Entries after “also recorded” stand apart in the source; their conditions may differ.
# Legend:
# [1] = system: U251 (glioblastoma line); assay: 72 h cytotoxicity, IN CELL Analyzer, U251 cells; type: cell-based, human
# Method: The U251MG glioblastoma cell line (formerly known as U-373 MG) was originally obtained from American Type Culture Collection (Manassas, Va.) and was used for a maximum of fifteen passages. […] U87, U251MG^O, A549 and MDA231-BR cells were maintained in DMEM (Gibco) supplemented with 2 mM L-glutamine (Gibco) and 10% fetal bovine serum (Gibco). […] All cells were maintained at 37° C. and 5% CO2 The cells were seeded into 384 well plates and allowed to grow for 24 hrs and then treated as specified for 72 hours. To assess the cytotoxic effects of the indicated compounds in adherent cell lines, the cells were stained with Hoescht 33342 and ethidium homodimer I for total and dead cell counts, respectively. Twenty minutes later, the cells were imaged using an In Cell Analyzer 2200 and cell viability was measured based on viable nuclei count.
# [2] = system: MDA-231BR (triple negative breast cancer line); assay: 72 h cytotoxicity, IN CELL Analyzer, MDA-231BR cells; type: cell-based; details: copper+DDC
# Method: (§1) For studies with DDC, the cell lines U87, and A549 were obtained from ATCC, HBEpC (Human Bronchial Epithelial Cells) was obtained from Cell Applications (San Deigo, Calif.) and MDA-231-BR was from the NIH/NCI. The U251MG glioblastoma cell line (formerly known as U-373 MG) was originally obtained from American Type Culture Collection (Manassas, Va.) and was used for a maximum of fifteen passages. Subsequently, the U251MG was obtained from Sigma-Aldrich (product number 09063001). […] Both cell lines are now being maintained as separate lines U251MG^O (original line) and U251MG^SA (Sigma-Aldrich). U87, U251MG^O, A549 and MDA231-BR cells were maintained in DMEM (Gibco) supplemented with 2 mM L-glutamine (Gibco) and 10% fetal bovine serum (Gibco). HBEpC were grown in bronchial/tracheal epithelial growth medium obtained from Cell Applications and were used for a maximum of three passages. […] Twenty minutes later, the cells were imaged using an In Cell Analyzer 2200 and cell viability was measured based on viable nuclei count. For the suspension cell line MV-4-11, cells were incubated with the PrestoBlue reagent (Life Technologies) at 37° C. and 5% CO2 for 1 hour, after which cell viability was evaluated based on metabolic activity as measured with the FLUOstar OPTIMA microplate reader (BMG Labtech).
# [3] = system: A549 (lung cancer line); assay: 72 h cytotoxicity, A549 cells; type: cell-based, human
# Method: as §1, with “(Sigma-Aldrich).” for “(Sigma-Aldrich). U87, U251MG^O, A549 and MDA231-BR cells were maintained in DMEM (Gibco) supplemented with 2 mM L-glutamine (Gibco) and 10% fetal bovine serum (Gibco). HBEpC were grown in bronchial/tracheal epithelial growth medium obtained from Cell Applications and were used for a maximum of three passages.”
# (§2) The anticancer activity of clioquinol (CQ) in cancer lines through copper dependent and independent pathways was examined. […] Cell viability was assessed based on loss of plasma membrane integrity 72 hours following treatment. Total cell count and dead cell count were determined using Hoechst 33342 and ethidium homodimer staining, respectively. […]
# [4] = system: normal human bronchial epithelial cells HBEpC; assay: 72 h cytotoxicity, normal bronchial epithelial cells; type: cell-based
# Method: as §1
# [5] = Aqueous solubility of metal complexes (qualitative); type: physicochemical
# [6] = system: H460 (non-small cell lung cancer); assay: 72-hour cytotoxicity assay, H460 cells; type: cell-based
# [7] = system: MV-4-11 (leukemia) cells; assay: 72 h cytotoxicity (PrestoBlue), MV-4-11 cells; type: cell-based, human
# Method: as §1, with “(Sigma-Aldrich).” for “(Sigma-Aldrich). U87, U251MG^O, A549 and MDA231-BR cells were maintained in DMEM (Gibco) supplemented with 2 mM L-glutamine (Gibco) and 10% fetal bovine serum (Gibco). HBEpC were grown in bronchial/tracheal epithelial growth medium obtained from Cell Applications and were used for a maximum of three passages.”, “Labtech). […]” for “Labtech).”
# as §2
# [8] = system: MV-4-11, HCT116WT, HCT116B18 and HCT116B46 cells; assay: Cytotoxicity IC50 comparison of CX5461 with metal salts in a cell panel; type: cell-based
# Method: as §1, with “Labtech). […]” for “Labtech).”
# [9] = Plasma elimination of CX5461, free versus liposomal; type: in vivo; details: within 1 hour of injection
# Method: Cu(DDC)2 was measured by using Cu as a surrogate marker. Samples were diluted in 0.1% HNO3 and subsequently the Cu concentration was measured using AAS (AAnalyst600, Perkin Elmer) as described above. Plasma Cu was corrected using untreated CD-1 mouse plasma as a blank. […] All other compounds were measured using HPLC as summarized below using a Waters Alliance HPLC Module 2695 and photodiode array detector model 996 and Empower 2 Software. […] Similarly, the quantification of CX5461 was performed in acidified methanol to dissociate the complex and CX5461 was measured at 300 nm following separation on a Luna C18 column (5 μm, 4.6×150 mm). The mobile phase contained a 1:1.2 mixture of 0.1% TFA in water and 0.1% TFA in methanol. A 5 μL sample volume was injected, the flow rate was set at 1 mL/min and the column temperature was 35° C.
# [10] = system: U87 glioblastoma cells; assay: cells; type: cell-based; details: for IC50: Homo sapiens, U-87 MG, absence of copper, 72 h
# Method: For studies with DDC, the cell lines U87, and A549 were obtained from ATCC, HBEpC (Human Bronchial Epithelial Cells) was obtained from Cell Applications (San Deigo, Calif.) and MDA-231-BR was from the NIH/NCI. The U251MG glioblastoma cell line (formerly known as U-373 MG) was originally obtained from American Type Culture Collection (Manassas, Va.) and was used for a maximum of fifteen passages. Subsequently, the U251MG was obtained from Sigma-Aldrich (product number 09063001). […] Both cell lines are now being maintained as separate lines U251MG^O (original line) and U251MG^SA (Sigma-Aldrich). U87, U251MG^O, A549 and MDA231-BR cells were maintained in DMEM (Gibco) supplemented with 2 mM L-glutamine (Gibco) and 10% fetal bovine serum (Gibco). HBEpC were grown in bronchial/tracheal epithelial growth medium obtained from Cell Applications and were used for a maximum of three passages. All cells were maintained at 37° C. and 5% CO2 The cells were seeded into 384 well plates and allowed to grow for 24 hrs and then treated as specified for 72 hours. To assess the cytotoxic effects of the indicated compounds in adherent cell lines, the cells were stained with Hoescht 33342 and ethidium homodimer I for total and dead cell counts, respectively. Twenty minutes later, the cells were imaged using an In Cell Analyzer 2200 and cell viability was measured based on viable nuclei count. For the suspension cell line MV-4-11, cells were incubated with the PrestoBlue reagent (Life Technologies) at 37° C. and 5% CO2 for 1 hour, after which cell viability was evaluated based on metabolic activity as measured with the FLUOstar OPTIMA microplate reader (BMG Labtech).
# Cytotoxicity results were obtained with an IN CELL™ Analyzer in U87 glioblastoma cells. Cell viability was assessed based on detection of plasma membrane integrity 72 hours following treatment. Total and dead cell counts were determined using Hoeschst 33342 and ethidium homodimer staining.
# [11] = system: A2780-S (human ovarian carcinoma, platinum sensitive); assay: 72 h cytotoxicity, IN CELL Analyzer, A2780-S cells; type: cell-based
# Method: FIG. 26 Clioquinol metal complex cytotoxicity in A2780-S (ovarian cancer) cells. (A) Cytotoxicity curves for CQ (-●-), Cu(CQ)2 (-▪-) and Zn(CQ)2 (-♦-) were obtained using the INCELL analyzer where viability was assessed based on loss of plasma membrane integrity 72 hours following treatment; i.e., total cell count and dead cell count were determined using Hoechst 33342 and ethidium homodimer staining, respectively. Results are given as mean ±SEM (B) IC50 values of CQ and metal complexes in A2780-S (IC50±95% CI).
# The anticancer activity of clioquinol (CQ) in cancer lines through copper dependent and independent pathways was examined. Both CQ (-●-) and Cu(CQ)2 (-▪-) were dissolved in DMSO and diluted to a final concentration of <0.5% (at higher concentrations (>100 μM) of Cu(CQ)2, precipitated drug could be seen under the microscope). A2780-S (human ovarian carcinoma, platinum sensitive), A2780-CP (human ovarian carcinoma, platinum insensitive) as well as A549 (human lung cancer), U251 (human glioblastoma) cytotoxicity curves (FIG. 22 A-D) were obtained with the IN CELL Analyzer 2200. Cell viability was assessed based on loss of plasma membrane integrity 72 hours following treatment. Total cell count and dead cell count were determined using Hoechst 33342 and ethidium homodimer staining, respectively. […]
# [12] = system: A2780-CP (human ovarian carcinoma, platinum insensitive); assay: 72 h cytotoxicity, IN CELL Analyzer, A2780-CP cells; type: cell-based
# Method: The anticancer activity of clioquinol (CQ) in cancer lines through copper dependent and independent pathways was examined. Both CQ (-●-) and Cu(CQ)2 (-▪-) were dissolved in DMSO and diluted to a final concentration of <0.5% (at higher concentrations (>100 μM) of Cu(CQ)2, precipitated drug could be seen under the microscope). A2780-S (human ovarian carcinoma, platinum sensitive), A2780-CP (human ovarian carcinoma, platinum insensitive) as well as A549 (human lung cancer), U251 (human glioblastoma) cytotoxicity curves (FIG. 22 A-D) were obtained with the IN CELL Analyzer 2200. Cell viability was assessed based on loss of plasma membrane integrity 72 hours following treatment. Total cell count and dead cell count were determined using Hoechst 33342 and ethidium homodimer staining, respectively. The CQ cytotoxicity curve in MV-4-11 (human leukemia) was generated using PrestoBlue reagent to establish cell viability through metabolic activity.
# [13] = Solubility of quercetin in water and HEPES buffer saline; type: physicochemical
# Method: (or 22° C.) for 60 minutes in 2 mL of the respective buffers. […] The time points for dissolution were 5, 10, 15, 30 and 60 minutes.
# (38 μg/mL). A supersaturated solution of quercetin-HBS remained stable over a one-hour period once removed from heat.
smiles,measurement,setting,value
CCN(CC)C(=S)[S-].CCN(CC)C(=S)[S-].[Cu+2] [Cu(DDC)2],IC50,[1]; copper+DDC,345 nM
same,IC50,[2],329 nM
same,IC50,[3]; copper+DDC,880 nM
same,activity against normal cells,[4],little activity
same,solubility in water / aqueous solution,[5],highly insoluble; also recorded: almost completely insoluble
Cc1cnc(CNC(=O)c2c(=O)c3ccc(N4CCCN(C)CC4)nc3n3c2sc2ccccc23)cn1 [CX5461],effect of equimolar copper on anti-cancer activity,[6],does not alter
same,effect of equimolar copper on anti-cancer activity,[7]; 72 h,does not alter
same,activity (IC50) versus low pH preparation of metal-free compound,"[8]; combined with CuSO4, dissolution at pH 7.4",statistically similar
same,activity (IC50) versus low pH preparation of metal-free compound,"[8]; combined with ZnSO4, dissolution at pH 7.4",statistically similar
same,compound removed from circulation,[9],96%
"CCN(CC)C(=S)S [DDC, Diethyldithiocarbamate]",IC50,[10],> 10000 nM
"Oc1c(I)cc(Cl)c2cccnc12 [CQ, Clioquinol]",copper dependence of CQ activity,[1],copper independent
same,copper dependence of CQ activity,[3],copper dependant
same,copper dependence of CQ activity,[7],copper independent
same,copper dependence of CQ activity,[11],copper dependant
same,copper dependence of CQ activity,[12],copper dependant
"CCN(CC)C(=S)SSC(=S)N(CC)CC [DSF, Disulfiram]",shift in cytotoxicity in the presence of copper,[10],2 orders of magnitude
same,IC50,[10],> 10000 nM
"O=c1c(O)c(-c2ccc(O)c(O)c2)oc2cc(O)cc(O)c12 [quercetin, Quercetin]",solubility at 60 min,"[13]; 60 °C, water, thermodynamic from solid",12.3 µg/mL
same,solubility,[13]; 60 min,38 µg/mL
same,solubility,"[13]; HBS, room temperature",7.78 µg/mL
